Where two headings read alike, the source gives them in different places.
Legend:
Test in all cases: Kinase inhibition profile (HTRF / ADP Glo kinase assay)
Format in all cases: biochemical
[1] = biological target: EPHB4 (Homo sapiens (Human), UniProt P54760)
Protocol: (§1) HTRF kinase assay: 2×ATP and substrate solution as well as 2× kinase and metal solution were prepared with assay buffer. 25 nL of compound was transferred to 384-well assay plate by Echo 655. After centrifugation, 2.5 μL of 2× kinase/metal ion solution was added to the 384-well assay plate followed by incubation at 25° C. for 10 min. 2.5 μL of 2× substrate and ATP solution was added to the wells followed by incubation at 25° C. for 60 min. 2× XL665 and antibody solution was prepared with assay buffer. 5 μL of kinase detection reagent was added to the wells followed by incubation at 25° C. for 60 min. Fluorescence signals at 620 nm (Cryptate) and 665 nm (XL665) were read with a microtiter plate reader. ADP Glo kinase assay: 2×ATP and substrate solution as well as 2× kinase and metal solution were prepared with assay buffer. 20 nL of compound was transferred to 384-well assay plate by Echo 655. 2 μL of 2× kinase/metal ion solution was added followed by incubation at 25° C. for 10 min in the 384-well assay plate. 2 μL of 2× substrate and ATP solution was added to the wells followed by incubation at 25° C. for 60 min. 4 μL of ADP Glo reagent was added to the wells followed by incubation at 25° C. for 40 min. 8 μL of kinase test reagent was added to the wells followed by incubation at 25° C. for 40 min. The luminescence signals were recorded on a microtiter plate reader. Data analysis: the reaction control (0.5% DMSO) reading was set to 0% inhibition, and the background (10 μM positive control) reading was set to 100% inhibition, then the percent inhibition for each test solution was calculated and the results are shown in Table 2 and FIG. 3.

[2] = biological target: SYK (Homo sapiens (Human), UniProt P43405)
Protocol: as §1

[3] = biological target: PDGFRα (Homo sapiens (Human), UniProt P16234)
Sequence of PDGFRα (P16234 24-1089, species assumed): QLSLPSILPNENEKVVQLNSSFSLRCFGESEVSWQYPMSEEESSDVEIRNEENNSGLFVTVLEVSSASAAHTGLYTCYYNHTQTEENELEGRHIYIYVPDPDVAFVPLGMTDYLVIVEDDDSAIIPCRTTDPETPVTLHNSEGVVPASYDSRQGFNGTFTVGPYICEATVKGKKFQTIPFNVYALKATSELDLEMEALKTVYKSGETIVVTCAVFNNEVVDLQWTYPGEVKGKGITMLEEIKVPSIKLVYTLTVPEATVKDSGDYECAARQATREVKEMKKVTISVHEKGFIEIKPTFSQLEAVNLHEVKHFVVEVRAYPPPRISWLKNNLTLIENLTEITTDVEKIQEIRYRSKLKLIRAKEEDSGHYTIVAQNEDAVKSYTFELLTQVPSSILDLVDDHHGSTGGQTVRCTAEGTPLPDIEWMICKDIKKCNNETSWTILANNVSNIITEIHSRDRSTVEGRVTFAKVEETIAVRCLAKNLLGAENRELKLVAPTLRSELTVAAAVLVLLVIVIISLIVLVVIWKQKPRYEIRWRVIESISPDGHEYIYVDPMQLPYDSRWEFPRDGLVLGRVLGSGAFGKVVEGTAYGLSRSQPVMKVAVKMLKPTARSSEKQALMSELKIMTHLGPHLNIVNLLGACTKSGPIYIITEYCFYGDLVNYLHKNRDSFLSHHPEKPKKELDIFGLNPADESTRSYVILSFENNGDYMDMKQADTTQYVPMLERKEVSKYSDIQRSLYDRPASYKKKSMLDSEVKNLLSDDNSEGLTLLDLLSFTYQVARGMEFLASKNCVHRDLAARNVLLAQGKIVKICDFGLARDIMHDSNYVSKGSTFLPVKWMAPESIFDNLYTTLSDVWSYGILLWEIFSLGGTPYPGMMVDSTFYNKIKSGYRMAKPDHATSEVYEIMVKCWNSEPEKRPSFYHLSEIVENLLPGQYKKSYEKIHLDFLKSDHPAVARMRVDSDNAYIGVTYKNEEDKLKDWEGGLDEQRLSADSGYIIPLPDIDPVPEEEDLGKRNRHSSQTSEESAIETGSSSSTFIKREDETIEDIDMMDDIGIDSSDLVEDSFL
Protocol: as §1

[4] = biological target: HGK (Homo sapiens (Human), UniProt O95819)
Protocol: as §1

[5] = biological target: GSK3β (Homo sapiens (Human), UniProt P49841)
Sequence of GSK3β (P49841 whole entry, species assumed): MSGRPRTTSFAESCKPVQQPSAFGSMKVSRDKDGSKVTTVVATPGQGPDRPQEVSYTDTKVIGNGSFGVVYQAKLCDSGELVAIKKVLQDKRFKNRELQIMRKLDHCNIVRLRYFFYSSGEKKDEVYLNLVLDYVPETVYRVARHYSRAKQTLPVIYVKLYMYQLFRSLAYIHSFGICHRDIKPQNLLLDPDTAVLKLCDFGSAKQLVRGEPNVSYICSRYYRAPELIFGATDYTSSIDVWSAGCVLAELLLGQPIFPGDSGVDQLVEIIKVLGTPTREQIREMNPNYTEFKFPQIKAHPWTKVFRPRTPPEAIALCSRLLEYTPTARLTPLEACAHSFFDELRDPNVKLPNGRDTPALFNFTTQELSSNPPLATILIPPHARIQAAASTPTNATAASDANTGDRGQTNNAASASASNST
Protocol: as §1

[6] = biological target: CDK5/p35NCK (Homo sapiens (Human), UniProt Q00535)
Sequence of CDK5/p35NCK (Q00535 whole entry, species assumed): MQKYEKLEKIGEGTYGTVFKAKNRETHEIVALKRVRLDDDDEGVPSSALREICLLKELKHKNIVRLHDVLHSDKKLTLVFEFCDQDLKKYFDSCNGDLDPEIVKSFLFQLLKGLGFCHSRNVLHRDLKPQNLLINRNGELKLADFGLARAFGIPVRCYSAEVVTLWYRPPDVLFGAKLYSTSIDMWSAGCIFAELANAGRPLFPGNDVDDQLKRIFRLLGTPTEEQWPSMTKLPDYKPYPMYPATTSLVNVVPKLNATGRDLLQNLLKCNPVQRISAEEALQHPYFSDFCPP
Sequence of CDK5/p35NCK (Q15078 whole entry partner, species assumed): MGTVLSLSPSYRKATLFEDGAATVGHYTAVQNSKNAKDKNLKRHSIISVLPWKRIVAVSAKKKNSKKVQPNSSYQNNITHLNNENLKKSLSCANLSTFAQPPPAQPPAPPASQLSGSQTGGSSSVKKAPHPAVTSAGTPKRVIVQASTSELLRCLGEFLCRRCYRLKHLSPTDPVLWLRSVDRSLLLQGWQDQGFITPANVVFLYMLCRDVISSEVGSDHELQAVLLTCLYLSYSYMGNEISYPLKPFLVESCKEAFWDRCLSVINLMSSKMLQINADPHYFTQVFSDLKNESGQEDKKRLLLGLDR
Protocol: as §1

[7] = biological target: PKACα (Homo sapiens (Human), UniProt P17612)
Protocol: as §1

[8] = biological target: IGF1R (Homo sapiens (Human), UniProt P08069)
Protocol: as §1

[9] = biological target: PKCα (Homo sapiens (Human), UniProt P17252)
Protocol: as §1

[10] = biological target: CK1γ2 (Homo sapiens (Human), UniProt P78368)
Sequence of CK1γ2 (P78368 whole entry): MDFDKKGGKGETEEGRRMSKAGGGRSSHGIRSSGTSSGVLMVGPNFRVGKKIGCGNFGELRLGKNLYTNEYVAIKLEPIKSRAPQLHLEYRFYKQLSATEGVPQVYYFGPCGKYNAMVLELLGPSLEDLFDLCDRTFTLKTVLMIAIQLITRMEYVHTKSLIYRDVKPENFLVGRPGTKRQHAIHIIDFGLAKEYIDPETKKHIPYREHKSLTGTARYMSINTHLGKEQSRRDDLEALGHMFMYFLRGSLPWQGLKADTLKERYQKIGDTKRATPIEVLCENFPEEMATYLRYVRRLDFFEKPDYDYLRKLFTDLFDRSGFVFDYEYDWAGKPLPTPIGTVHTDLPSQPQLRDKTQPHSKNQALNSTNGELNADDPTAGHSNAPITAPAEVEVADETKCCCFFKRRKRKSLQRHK
Protocol: as §1

[11] = biological target: DAPK1 (Homo sapiens (Human), UniProt P53355)
Protocol: as §1

[12] = biological target: PKD2 (Homo sapiens (Human), UniProt Q9BZL6)
Protocol: as §1

[13] = biological target: MAPKAPK2 (Homo sapiens (Human), UniProt P49137)
Protocol: as §1

[14] = biological target: CK1γ3 (Homo sapiens (Human), UniProt Q9Y6M4)
Protocol: as §1

[15] = biological target: CDK1/CycE1 (Homo sapiens (Human), UniProt P06493)
Sequence of CDK1/CycE1 (P06493 whole entry, species assumed): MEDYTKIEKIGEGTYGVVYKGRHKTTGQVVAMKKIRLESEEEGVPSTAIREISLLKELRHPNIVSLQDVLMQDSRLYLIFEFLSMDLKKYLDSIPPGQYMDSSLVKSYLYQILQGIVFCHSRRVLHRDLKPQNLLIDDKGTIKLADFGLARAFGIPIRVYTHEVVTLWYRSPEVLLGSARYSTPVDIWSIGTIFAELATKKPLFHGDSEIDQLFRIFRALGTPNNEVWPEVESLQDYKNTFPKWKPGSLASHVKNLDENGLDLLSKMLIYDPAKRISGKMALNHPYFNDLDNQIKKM
Sequence of CDK1/CycE1 (P24864 whole entry partner, species assumed): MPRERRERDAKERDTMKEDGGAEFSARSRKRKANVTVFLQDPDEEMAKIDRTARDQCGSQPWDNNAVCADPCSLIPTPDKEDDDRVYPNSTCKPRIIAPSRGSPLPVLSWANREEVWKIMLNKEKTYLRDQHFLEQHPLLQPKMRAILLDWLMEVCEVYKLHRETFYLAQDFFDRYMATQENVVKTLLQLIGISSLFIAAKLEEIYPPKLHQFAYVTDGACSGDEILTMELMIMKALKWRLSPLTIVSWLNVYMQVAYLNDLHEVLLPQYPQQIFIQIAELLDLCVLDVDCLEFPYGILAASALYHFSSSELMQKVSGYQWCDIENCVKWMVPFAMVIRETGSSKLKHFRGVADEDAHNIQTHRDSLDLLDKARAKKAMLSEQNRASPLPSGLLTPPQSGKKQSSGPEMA
Protocol: as §1

[16] = biological target: CK1α (Homo sapiens (Human), UniProt P48729)
Protocol: as §1

[17] = biological target: LCK (Homo sapiens (Human), UniProt P06239)
Protocol: as §1

[18] = biological target: SGK (Homo sapiens (Human), UniProt O00141)
Protocol: as §1

[19] = biological target: DCAMKL2 (Homo sapiens (Human), UniProt Q8N568)
Protocol: as §1

[20] = biological target: AXL (Homo sapiens (Human), UniProt P30530)
Protocol: as §1

[21] = biological target: SRC (Homo sapiens (Human), UniProt P12931)
Protocol: as §1

[22] = biological target: PLK2 (Homo sapiens (Human), UniProt Q9NYY3)
Sequence of PLK2 (Q9NYY3 whole entry, species assumed): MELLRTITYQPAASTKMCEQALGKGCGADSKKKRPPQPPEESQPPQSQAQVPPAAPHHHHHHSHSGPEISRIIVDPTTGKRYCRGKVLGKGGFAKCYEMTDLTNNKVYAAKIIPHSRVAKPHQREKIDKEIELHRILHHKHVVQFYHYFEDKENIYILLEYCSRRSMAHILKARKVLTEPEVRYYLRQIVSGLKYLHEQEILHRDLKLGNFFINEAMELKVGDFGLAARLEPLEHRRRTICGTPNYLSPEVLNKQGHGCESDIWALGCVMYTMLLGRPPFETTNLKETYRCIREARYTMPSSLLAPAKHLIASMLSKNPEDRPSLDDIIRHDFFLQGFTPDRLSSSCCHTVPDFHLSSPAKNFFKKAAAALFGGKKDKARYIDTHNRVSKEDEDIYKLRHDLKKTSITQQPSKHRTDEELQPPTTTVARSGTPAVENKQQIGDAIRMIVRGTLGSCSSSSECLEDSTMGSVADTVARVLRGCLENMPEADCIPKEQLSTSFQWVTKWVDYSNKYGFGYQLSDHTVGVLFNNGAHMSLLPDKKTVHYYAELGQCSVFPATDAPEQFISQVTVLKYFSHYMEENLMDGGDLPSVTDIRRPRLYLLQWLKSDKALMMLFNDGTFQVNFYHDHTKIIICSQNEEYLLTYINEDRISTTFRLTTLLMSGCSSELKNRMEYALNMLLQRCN
Protocol: as §1

[23] = 1 uM Compound C1, read-out: % Inhibition (First measurement)
[24] = 1 uM Compound C1, read-out: % Inhibition (Second measurement)
[25] = 1 uM Compound C1, read-out: Average inhibition (%)

Sequence of EPHB4 (P54760 16-987, species assumed): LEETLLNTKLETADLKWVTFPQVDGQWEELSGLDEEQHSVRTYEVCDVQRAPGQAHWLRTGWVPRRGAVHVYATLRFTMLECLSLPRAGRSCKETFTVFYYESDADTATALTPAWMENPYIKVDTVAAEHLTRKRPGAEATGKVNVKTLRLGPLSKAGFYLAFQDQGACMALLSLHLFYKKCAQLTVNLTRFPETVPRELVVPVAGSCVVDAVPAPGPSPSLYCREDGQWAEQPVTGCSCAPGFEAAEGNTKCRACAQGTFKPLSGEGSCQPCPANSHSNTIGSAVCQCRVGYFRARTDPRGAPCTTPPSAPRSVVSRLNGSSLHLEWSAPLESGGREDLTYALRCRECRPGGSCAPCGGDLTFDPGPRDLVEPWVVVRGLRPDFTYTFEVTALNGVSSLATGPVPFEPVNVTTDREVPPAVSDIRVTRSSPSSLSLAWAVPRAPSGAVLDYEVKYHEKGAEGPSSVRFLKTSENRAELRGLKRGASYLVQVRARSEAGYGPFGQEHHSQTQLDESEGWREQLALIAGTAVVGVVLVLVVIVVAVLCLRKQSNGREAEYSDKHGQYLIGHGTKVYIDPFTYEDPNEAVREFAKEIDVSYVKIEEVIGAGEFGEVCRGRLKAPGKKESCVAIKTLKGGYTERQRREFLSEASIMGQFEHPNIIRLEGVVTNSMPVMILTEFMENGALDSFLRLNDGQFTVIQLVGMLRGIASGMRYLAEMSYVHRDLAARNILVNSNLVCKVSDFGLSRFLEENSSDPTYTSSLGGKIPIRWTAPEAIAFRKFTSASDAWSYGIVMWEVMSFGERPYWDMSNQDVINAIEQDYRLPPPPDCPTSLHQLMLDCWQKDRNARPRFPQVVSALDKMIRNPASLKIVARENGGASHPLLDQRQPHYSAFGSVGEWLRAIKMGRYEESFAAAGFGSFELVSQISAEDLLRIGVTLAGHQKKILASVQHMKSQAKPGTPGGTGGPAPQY

inhibition at 1 µM [1, 23]: 3.8%
inhibition at 1 µM [1, 24]: -8.27%
inhibition at 1 µM [1, 25]: -2.24%
inhibition at 1 µM [2, 23]: 5.21%
inhibition at 1 µM [2, 24]: -2.04%
inhibition at 1 µM [2, 25]: 1.59%
inhibition at 1 µM [3, 23]: 84.1%
inhibition at 1 µM [3, 24]: 84.8%
inhibition at 1 µM [3, 25]: 84.4%
inhibition at 1 µM [4, 23]: 18.5%
inhibition at 1 µM [4, 24]: 17%
inhibition at 1 µM [4, 25]: 17.7%
inhibition at 1 µM [5, 23]: 0.83%
inhibition at 1 µM [5, 24]: 7.83%
inhibition at 1 µM [5, 25]: 4.33%
inhibition at 1 µM [6, 23]: 31.2%
inhibition at 1 µM [6, 24]: 31.2%
inhibition at 1 µM [6, 25]: 31.2%
inhibition at 1 µM [7, 23]: -4.44%
inhibition at 1 µM [7, 24]: -1.87%
inhibition at 1 µM [7, 25]: -3.15%
inhibition at 1 µM [8, 23]: -0.05%
inhibition at 1 µM [8, 24]: -2.29%
inhibition at 1 µM [8, 25]: -1.17%
inhibition at 1 µM [9, 23]: -1.67%
inhibition at 1 µM [9, 24]: -17.2%
inhibition at 1 µM [9, 25]: -9.44%
inhibition at 1 µM [10, 23]: -6.26%
inhibition at 1 µM [10, 24]: -6.88%
inhibition at 1 µM [10, 25]: -6.57%
inhibition at 1 µM [11, 23]: -14.5%
inhibition at 1 µM [11, 24]: -5.25%
inhibition at 1 µM [11, 25]: -9.87%
inhibition at 1 µM [12, 23]: -7.86%
inhibition at 1 µM [12, 24]: -6.58%
inhibition at 1 µM [12, 25]: -7.22%
inhibition at 1 µM [13, 23]: 15.3%
inhibition at 1 µM [13, 24]: -3.28%
inhibition at 1 µM [13, 25]: 6.02%
inhibition at 1 µM [14, 23]: -7.05%
inhibition at 1 µM [14, 24]: 1.91%
inhibition at 1 µM [14, 25]: -2.57%
inhibition at 1 µM [15, 23]: 11.9%
inhibition at 1 µM [15, 24]: 20.1%
inhibition at 1 µM [15, 25]: 16%
inhibition at 1 µM [16, 23]: 5.8%
inhibition at 1 µM [16, 24]: -5.89%
inhibition at 1 µM [16, 25]: -0.04%
inhibition at 1 µM [17, 23]: 7.39%
inhibition at 1 µM [17, 24]: -6.87%
inhibition at 1 µM [17, 25]: 0.26%
inhibition at 1 µM [18, 23]: -8.79%
inhibition at 1 µM [18, 24]: -6.61%
inhibition at 1 µM [18, 25]: -7.7%
inhibition at 1 µM [19, 23]: -8.91%
inhibition at 1 µM [19, 24]: -8.39%
inhibition at 1 µM [19, 25]: -8.65%
inhibition at 1 µM [20, 23]: 15.1%
inhibition at 1 µM [20, 24]: 13.3%
inhibition at 1 µM [20, 25]: 14.2%
inhibition at 1 µM [21, 23]: -0.76%
inhibition at 1 µM [21, 24]: -1.13%
inhibition at 1 µM [21, 25]: -0.94%
inhibition at 1 µM [22, 23]: 10.6%
inhibition at 1 µM [22, 24]: 2.02%
inhibition at 1 µM [22, 25]: 6.33%
Compound: Cc1ccc(C(=O)Nc2ccccn2)cc1C#Cc1cnc2cc(C3=CCCCC3)cnn12 [Compound C1, 3-{2-[7-(cyclohex-1-en-1-yl)imidazo[1,2-b]pyridazin-3-yl]ethynyl}-4-methyl-N-(pyridin-2-yl)benzamide]

Reference: patent publication US20240300958A1, “COMPOUNDS AND THE USES AND PHARMACEUTICAL COMPOSITIONS THEREOF” (BEIJING YOUZHUJU NETWORK TECHNOLOGY CO. LTD., priority 2023, published 2024)
